Laboratory results reported in ChEMBL document CHEMBL3400015, “Tertiary amides of Salinomycin: A new group of antibacterial agents against Bacillus anthracis and methicillin-resistant Staphylococcus epidermidis” (Bioorg Med Chem Lett, 2015).
≈ marks a conversion by molar mass, not a printed value.

How the values were obtained:
[1] = test system: Staphylococcus epidermidis; assay: Bactericidal activity against Staphylococcus epidermidis ATCC 12228 after 24 hrs; format: functional; conditions: ATCC 12228, 24 h, read-out: MBC99.9
Bacillus subtilis [2] = assay: Genotoxicity in rec-positive Bacillus subtilis H17 at 2 ug/9 mm disc after 24 hrs by disc diffusion method; format: toxicity, organism-based
[3] = test system: Staphylococcus epidermidis; assay: Antimicrobial activity against methicillin-resistant Staphylococcus epidermidis isolate 458/11 after 18 hrs by twofold serial broth dilution method; format: functional; conditions: isolate 458/11, 18 h
Escherichia coli [4] = assay: Bactericidal activity against Escherichia coli NCTC 8196 after 24 hrs; format: functional; conditions: NCTC 8196, 24 h, read-out: MBC99.9
[5] = test system: Staphylococcus epidermidis; assay: Antimicrobial activity against methicillin-resistant Staphylococcus epidermidis isolate 454/11 after 18 hrs by twofold serial broth dilution method; format: functional; conditions: isolate 454/11, 18 h
[6] = test system: Staphylococcus epidermidis; assay: Bactericidal activity against methicillin-resistant Staphylococcus epidermidis isolate 458/11 after 24 hrs; format: functional; conditions: isolate 458/11, 24 h, read-out: MBC99.9
[7] = test system: Staphylococcus epidermidis; assay: Antimicrobial activity against Staphylococcus epidermidis ATCC 35984 after 18 hrs by twofold serial broth dilution method; format: functional; conditions: ATCC 35984, 18 h
Bacillus subtilis [8] = assay: Genotoxicity in rec-negative Bacillus subtilis M45 at 2 ug/9 mm disc after 24 hrs by disc diffusion method; format: toxicity, organism-based
Staphylococcus aureus [9] = assay: Antimicrobial activity against Staphylococcus aureus ATCC 25923 after 18 hrs by twofold serial broth dilution method; format: functional; conditions: ATCC 25923, 18 h
Staphylococcus aureus [10] = assay: Bactericidal activity against Staphylococcus aureus NCTC 4163 after 24 hrs; format: functional; conditions: NCTC 4163, 24 h, read-out: MBC99.9
[11] = test system: Staphylococcus epidermidis; assay: Antimicrobial activity against methicillin-resistant Staphylococcus epidermidis isolate 460/11 after 18 hrs by twofold serial broth dilution method; format: functional; conditions: isolate 460/11, 18 h
[12] = test system: Staphylococcus epidermidis; assay: Antimicrobial activity against methicillin-resistant Staphylococcus epidermidis isolate 422/10 after 18 hrs by twofold serial broth dilution method; format: functional; conditions: isolate 422/10, 18 h
[13] = test system: Staphylococcus epidermidis; assay: Bactericidal activity against methicillin-resistant Staphylococcus epidermidis isolate 407/10 after 24 hrs; format: functional; conditions: isolate 407/10, 24 h, read-out: MBC99.9
Staphylococcus aureus [14] = assay: Bactericidal activity against Staphylococcus aureus […] after 24 hrs; format: functional; conditions: read-out: MBC99.9
[15] = test system: Staphylococcus epidermidis; assay: Antimicrobial activity against methicillin-resistant Staphylococcus epidermidis isolate 470/11 after 18 hrs by twofold serial broth dilution method; format: functional; conditions: isolate 470/11, 18 h
[16] = test system: Staphylococcus epidermidis; assay: Antimicrobial activity against methicillin-resistant Staphylococcus epidermidis isolate 459/11 after 18 hrs by twofold serial broth dilution method; format: functional; conditions: isolate 459/11, 18 h
[17] = test system: Staphylococcus epidermidis; assay: Bactericidal activity against methicillin-resistant Staphylococcus epidermidis isolate 403/10 after 24 hrs; format: functional; conditions: isolate 403/10, 24 h, read-out: MBC99.9
Pseudomonas aeruginosa [18] = assay: Bactericidal activity against Pseudomonas aeruginosa NCTC 6749 after 24 hrs; format: functional; conditions: NCTC 6749, 24 h, read-out: MBC99.9
Pseudomonas aeruginosa [19] = assay: Antimicrobial activity against Pseudomonas aeruginosa NCTC 6749 after 18 hrs by twofold serial broth dilution method; format: functional; conditions: NCTC 6749, 18 h
Escherichia coli [20] = assay: Antimicrobial activity against Escherichia coli ATCC 25922 after 18 hrs by twofold serial broth dilution method; format: functional; conditions: ATCC 25922, 18 h
[21] = test system: Staphylococcus epidermidis; assay: Bactericidal activity against methicillin-resistant Staphylococcus epidermidis isolate 455/11 after 24 hrs; format: functional; conditions: isolate 455/11, 24 h, read-out: MBC99.9
[22] = test system: Staphylococcus epidermidis; assay: Antimicrobial activity against methicillin-resistant Staphylococcus epidermidis isolate 469/11 after 18 hrs by twofold serial broth dilution method; format: functional; conditions: isolate 469/11, 18 h
Pseudomonas aeruginosa [23] = assay: Bactericidal activity against Pseudomonas aeruginosa ATCC 15442 after 24 hrs; format: functional; conditions: ATCC 15442, 24 h, read-out: MBC99.9
Escherichia coli [24] = assay: Bactericidal activity against Escherichia coli ATCC 25922 after 24 hrs; format: functional; conditions: ATCC 25922, 24 h, read-out: MBC99.9
Bacillus anthracis = assay: Antimicrobial activity against Bacillus anthracis 34F2 after 18 hrs by twofold serial broth dilution method; format: functional; conditions: 34F2, 18 h
Escherichia coli [25] = assay: Bactericidal activity against Escherichia coli ATCC 10538 after 24 hrs; format: functional; conditions: ATCC 10538, 24 h, read-out: MBC99.9
Escherichia coli [26] = assay: Antimicrobial activity against Escherichia coli ATCC 10538 after 18 hrs by twofold serial broth dilution method; format: functional; conditions: ATCC 10538, 18 h
[27] = test system: Staphylococcus epidermidis; assay: Antimicrobial activity against methicillin-resistant Staphylococcus epidermidis isolate 424/10 after 18 hrs by twofold serial broth dilution method; format: functional; conditions: isolate 424/10, 18 h
[28] = test system: Staphylococcus epidermidis; assay: Antimicrobial activity against methicillin-resistant Staphylococcus epidermidis isolate 403/10 after 18 hrs by twofold serial broth dilution method; format: functional; conditions: isolate 403/10, 18 h
[29] = test system: Staphylococcus epidermidis; assay: Antimicrobial activity against methicillin-resistant Staphylococcus epidermidis isolate 407/10 after 18 hrs by twofold serial broth dilution method; format: functional; conditions: isolate 407/10, 18 h
Staphylococcus aureus [30] = assay: Antimicrobial activity against Staphylococcus aureus […] after 18 hrs by twofold serial broth dilution method; format: functional
[31] = test system: Staphylococcus epidermidis; assay: Bactericidal activity against methicillin-resistant Staphylococcus epidermidis isolate 404/10 after 24 hrs; format: functional; conditions: isolate 404/10, 24 h, read-out: MBC99.9
[32] = test system: Staphylococcus epidermidis; assay: Bactericidal activity against methicillin-resistant Staphylococcus epidermidis isolate 461/11 after 24 hrs; format: functional; conditions: isolate 461/11, 24 h, read-out: MBC99.9
Pseudomonas aeruginosa [33] = assay: Antimicrobial activity against Pseudomonas aeruginosa ATCC 27853 after 18 hrs by twofold serial broth dilution method; format: functional; conditions: ATCC 27853, 18 h
Staphylococcus aureus [34] = assay: Bactericidal activity against Staphylococcus aureus ATCC 6538 after 24 hrs; format: functional; conditions: ATCC 6538, 24 h, read-out: MBC99.9
[35] = test system: Staphylococcus epidermidis; assay: Antimicrobial activity against methicillin-resistant Staphylococcus epidermidis isolate 455/11 after 18 hrs by twofold serial broth dilution method; format: functional; conditions: isolate 455/11, 18 h
Pseudomonas aeruginosa [36] = assay: Antimicrobial activity against Pseudomonas aeruginosa ATCC 15442 after 18 hrs by twofold serial broth dilution method; format: functional; conditions: ATCC 15442, 18 h
[37] = test system: Staphylococcus epidermidis; assay: Bactericidal activity against methicillin-resistant Staphylococcus epidermidis isolate 460/11 after 24 hrs; format: functional; conditions: isolate 460/11, 24 h, read-out: MBC99.9
[38] = test system: Staphylococcus epidermidis; assay: Bactericidal activity against methicillin-resistant Staphylococcus epidermidis isolate 424/10 after 24 hrs; format: functional; conditions: isolate 424/10, 24 h, read-out: MBC99.9
Pseudomonas aeruginosa [39] = assay: Bactericidal activity against Pseudomonas aeruginosa ATCC 27853 after 24 hrs; format: functional; conditions: ATCC 27853, 24 h, read-out: MBC99.9
[40] = test system: Staphylococcus epidermidis; assay: Bactericidal activity against Staphylococcus epidermidis ATCC 35984 after 24 hrs; format: functional; conditions: ATCC 35984, 24 h, read-out: MBC99.9
[41] = test system: Staphylococcus epidermidis; assay: Bactericidal activity against methicillin-resistant Staphylococcus epidermidis isolate 459/11 after 24 hrs; format: functional; conditions: isolate 459/11, 24 h, read-out: MBC99.9
[42] = test system: Staphylococcus epidermidis; assay: Antimicrobial activity against methicillin-resistant Staphylococcus epidermidis isolate 457/11 after 18 hrs by twofold serial broth dilution method; format: functional; conditions: isolate 457/11, 18 h
Escherichia coli [43] = assay: Antimicrobial activity against Escherichia coli NCTC 8196 after 18 hrs by twofold serial broth dilution method; format: functional; conditions: NCTC 8196, 18 h

## CCCN(CCC)C(=O)[C@H](CC)[C@H]1CC[C@H](C)[C@H]([C@@H](C)[C@H](O)[C@H](C)C(=O)[C@H](CC)[C@H]2O[C@]3(C=C[C@@H](O)[C@]4(CC[C@@](C)([C@H]5CC[C@](O)(CC)[C@H](C)O5)O4)O3)[C@H](C)C[C@@H]2C)O1
[1]
  MBC: 256 µg/mL (≈ 307 µM)
Bacillus subtilis [2]
  diameter of the inhibition zone (DIZ): 28 mm
[3]
  MIC: 8 µg/mL (≈ 9.59 µM)
Escherichia coli [4]
  MBC: > 256 µg/mL
[5]
  MIC: 4 µg/mL (≈ 4.8 µM)
[6]
  MBC: 256 µg/mL (≈ 307 µM)
[7]
  MIC: 2 µg/mL (≈ 2.4 µM)
Bacillus subtilis [8]
  diameter of the inhibition zone (DIZ): 26 mm
Staphylococcus aureus [9]
  MIC: 1 µg/mL (≈ 1.2 µM)
Staphylococcus aureus [10]
  MBC: > 256 µg/mL
[11]
  MIC: 8 µg/mL (≈ 9.59 µM)
[12]
  MIC: 8 µg/mL (≈ 9.59 µM)
[13]
  MBC: 256 µg/mL (≈ 307 µM)
Staphylococcus aureus [14]
  MBC: 256 µg/mL (≈ 307 µM)
[15]
  MIC: 8 µg/mL (≈ 9.59 µM)
[16]
  MIC: 4 µg/mL (≈ 4.8 µM)
[17]
  MBC: 128 µg/mL (≈ 153 µM)
Pseudomonas aeruginosa [18]
  MBC: > 256 µg/mL
Pseudomonas aeruginosa [19]
  MIC: > 256 µg/mL
Escherichia coli [20]
  MIC: > 256 µg/mL
[21]
  MBC: 256 µg/mL (≈ 307 µM)
[22]
  MIC: 4 µg/mL (≈ 4.8 µM)
Pseudomonas aeruginosa [23]
  MBC: > 256 µg/mL
Escherichia coli [24]
  MBC: > 256 µg/mL
Bacillus anthracis
  MIC: 4 µg/mL (≈ 4.8 µM)
Escherichia coli [25]
  MBC: > 256 µg/mL
Escherichia coli [26]
  MIC: > 256 µg/mL
[27]
  MIC: 8 µg/mL (≈ 9.59 µM)
[28]
  MIC: 4 µg/mL (≈ 4.8 µM)
[29]
  MIC: 4 µg/mL (≈ 4.8 µM)
Staphylococcus aureus [30]
  MIC: 2 µg/mL (≈ 2.4 µM)
[31]
  MBC: 128 µg/mL (≈ 153 µM)
[32]
  MBC: 128 µg/mL (≈ 153 µM)
Pseudomonas aeruginosa [33]
  MIC: > 256 µg/mL
Staphylococcus aureus [34]
  MBC: 256 µg/mL (≈ 307 µM)
[35]
  MIC: 8 µg/mL (≈ 9.59 µM)
Pseudomonas aeruginosa [36]
  MIC: > 256 µg/mL
[37]
  MBC: 256 µg/mL (≈ 307 µM)
[38]
  MBC: 256 µg/mL (≈ 307 µM)
Pseudomonas aeruginosa [39]
  MBC: > 256 µg/mL
[40]
  MBC: 256 µg/mL (≈ 307 µM)
[41]
  MBC: 128 µg/mL (≈ 153 µM)
[42]
  MIC: 8 µg/mL (≈ 9.59 µM)
Escherichia coli [43]
  MIC: > 256 µg/mL
